ChEMBL document CHEMBL4382242, “Novel racemosin B derivatives as new therapeutic agents for aggressive breast cancer” (Bioorg Med Chem, 2018)
One block for each molecule: values may come before it. Activity calls are given as the source filed them. The rule behind the calls is not given here.

How the values were obtained:
MDA-MB-231 [1] = assay: Growth inhibition of human MDA-MB-231 cells after 72 hrs by MTT assay; assay type: functional, cell-based; conditions: MDA-MB-231, 72 h
MCF7 = assay: Growth inhibition of human MCF7 cells after 72 hrs by MTT assay; assay type: functional, cell-based; conditions: MCF7, 72 h
HEL = assay: Growth inhibition of HEL cells after 72 hrs by MTT assay; assay type: functional, cell-based; conditions: Homo sapiens
K562 = assay: Growth inhibition of human K562 cells after 72 hrs by MTT assay; assay type: functional, cell-based; conditions: K562, 72 h
4T1 = assay: Growth inhibition of mouse 4T1 cells after 72 hrs by MTT assay; assay type: functional, cell-based; conditions: 4T1, 72 h
[2] = Growth inhibition of human WM9 cells after 72 hrs by MTT assay; assay type: functional; conditions: WM9, 72 h
[3] = Growth inhibition of human WM35 cells after 72 hrs by MTT assay; assay type: functional; conditions: WM35, 72 h
MDA-MB-231 [4] = assay: Growth inhibition of human MDA-MB-231 cells at 1 to 5 uM after 72 hrs by MTT assay; assay type: functional, cell-based
MDA-MB-231 [5] = assay: Induction of morphological changes in human MDA-MB-231 cells assessed as large vacuole formation at 5 uM after 24 hrs; assay type: functional, cell-based
MDA-MB-231 [6] = assay: Cell cycle arrest in human MDA-MB-231 cells assessed as accumulation at G1 phase at 5 uM after 24 hrs by propidium iodide staining based flow cytometry (reference value: 47.9%); assay type: functional
MDA-MB-231 [7] = assay: Cell cycle arrest in human MDA-MB-231 cells assessed as accumulation at S phase at 5 uM after 24 hrs by propidium iodide staining based flow cytometry (reference value: 29.76%); assay type: functional
MDA-MB-231 [8] = assay: Cell cycle arrest in human MDA-MB-231 cells assessed as accumulation at G2/M phase at 5 uM after 24 hrs by propidium iodide staining based flow cytometry (reference value: 18.5%); assay type: functional
MDA-MB-231 [9] = assay: Cell cycle arrest in human MDA-MB-231 cells assessed as accumulation at G1 phase at 5 uM after 48 hrs by propidium iodide staining based flow cytometry (reference value: 3.19%); assay type: functional
MDA-MB-231 [10] = assay: Cell cycle arrest in human MDA-MB-231 cells assessed as accumulation at S phase at 5 uM after 48 hrs by propidium iodide staining based flow cytometry (reference value: 31.71%); assay type: functional
MDA-MB-231 [11] = assay: Cell cycle arrest in human MDA-MB-231 cells assessed as accumulation at G2/M phase at 5 uM after 48 hrs by propidium iodide staining based flow cytometry (reference value: 17.79%); assay type: functional
MDA-MB-231 [12] = assay: Induction of apoptosis in human MDA-MB-231 cells assessed as live cells at 5 uM after 24 hrs by Annexin V-FITC/propidium iodide staining based flow cytometry (reference value: 90.8%); assay type: functional
MDA-MB-231 [13] = assay: Induction of apoptosis in human MDA-MB-231 cells assessed as early apoptotic cells at 5 uM after 24 hrs by Annexin V-FITC/propidium iodide staining based flow cytometry (reference value: 3.7%); assay type: functional
MDA-MB-231 [14] = assay: Induction of apoptosis in human MDA-MB-231 cells assessed as late apoptotic cells at 5 uM after 24 hrs by Annexin V-FITC/propidium iodide staining based flow cytometry (reference value: 4.8%); assay type: functional
MDA-MB-231 [15] = assay: Induction of apoptosis in human MDA-MB-231 cells assessed as necrotic cells at 5 uM after 24 hrs by Annexin V-FITC/propidium iodide staining based flow cytometry (reference value: 0.7%); assay type: functional
MDA-MB-231 [16] = assay: Induction of apoptosis in human MDA-MB-231 cells assessed as live cells at 5 uM after 48 hrs by Annexin V-FITC/propidium iodide staining based flow cytometry (reference value: 87.6%); assay type: functional
MDA-MB-231 [17] = assay: Induction of apoptosis in human MDA-MB-231 cells assessed as early apoptotic cells at 5 uM after 48 hrs by Annexin V-FITC/propidium iodide staining based flow cytometry (reference value: 5.3%); assay type: functional
MDA-MB-231 [18] = assay: Induction of apoptosis in human MDA-MB-231 cells assessed as late apoptotic cells at 5 uM after 48 hrs by Annexin V-FITC/propidium iodide staining based flow cytometry (reference value: 6.5%); assay type: functional
MDA-MB-231 [19] = assay: Induction of apoptosis in human MDA-MB-231 cells assessed as necrotic cells at 5 uM after 48 hrs by Annexin V-FITC/propidium iodide staining based flow cytometry (reference value: 0.7%); assay type: functional
MDA-MB-231 [20] = assay: Inhibition of autophagy in human MDA-MB-231 cells assessed as LC3-2 accumulation at 5 uM after 16 hrs by DAPI staining based immunofluorescence assay; assay type: functional, cell-based
MDA-MB-231 [21] = assay: Inhibition of autophagy in human MDA-MB-231 cells assessed as increase in p62 protein expression at 5 uM after 16 hrs by Western blot analysis; assay type: functional, cell-based
[22] = target: Serine/threonine-protein kinase mTOR (Homo sapiens) (UniProt P42345); assay: Inhibition of mTOR phosphorylation in human MDA-MB-231 cells at 5 uM after 16 hrs by Western blot analysis; assay type: cell-based
MDA-MB-231 [23] = assay: Induction of apoptosis in human MDA-MB-231 cells assessed as increase in Cyclin-B1 protein expression at 5 uM after 16 hrs by Western blot analysis; assay type: functional, cell-based
MDA-MB-231 [24] = assay: Induction of apoptosis in human MDA-MB-231 cells assessed as increase in Bax protein expression at 5 uM after 16 hrs by Western blot analysis; assay type: functional, cell-based
MDA-MB-231 [25] = assay: Induction of apoptosis in human MDA-MB-231 cells assessed as decrease in Bcl2 protein expression at 5 uM after 16 hrs by Western blot analysis; assay type: functional, cell-based

- IC50 (MDA-MB-231 [1]): 6.01 µM
- IC50 (MCF7): 9.8 µM
SMILES: O=C(NCc1cccnc1)c1cc2c3ccccc3[nH]c2c2c1[nH]c1ccccc12

- IC50 (MDA-MB-231 [1]): 7.79 µM
- IC50 (MCF7): 16.4 µM
SMILES: CN(C)c1ccc(NC(=O)c2cc3c4ccccc4[nH]c3c3c2[nH]c2ccccc23)cc1

- IC50 (MDA-MB-231 [1]): 1.71 µM
- IC50 (MCF7): 2.39 µM
SMILES: CCN(CC)CCNC(=O)c1cc2c3ccccc3[nH]c2c2c1[nH]c1ccccc12

- IC50 (MDA-MB-231 [1]): 5.64 µM
- IC50 (MCF7): 8.08 µM
SMILES: O=C(NCc1ccncc1)c1cc2c3ccccc3[nH]c2c2c1[nH]c1ccccc12

- IC50 (MDA-MB-231 [1]): 7.81 µM
- IC50 (MCF7): 10.8 µM
SMILES: CN(C)c1ccccc1NC(=O)c1cc2c3ccccc3[nH]c2c2c1[nH]c1ccccc12

- IC50 (MDA-MB-231 [1]): 7.92 µM
- IC50 (MCF7): 22.7 µM
SMILES: O=C(NCc1ccccn1)c1cc2c3ccccc3[nH]c2c2c1[nH]c1ccccc12

- IC50 (MDA-MB-231 [1]): 4.16 µM
- IC50 (MCF7): 4.86 µM
SMILES: O=C(NCCc1c[nH]cn1)c1cc2c3ccccc3[nH]c2c2c1[nH]c1ccccc12

- IC50 (MDA-MB-231 [1]): 1.41 µM
- IC50 (MCF7): 3.11 µM
SMILES: O=C(NCCN1CCCC1)c1cc2c3ccccc3[nH]c2c2c1[nH]c1ccccc12

Continued, molecule first:

SMILES: CN(C)CCNC(=O)c1cc2c3ccccc3[nH]c2c2c1[nH]c1cc(Cl)ccc12
- IC50 (MDA-MB-231 [1]): 4.51 µM
- IC50 (MCF7): 8.03 µM

SMILES: CN(C)CCN(C)C(=O)c1cc2c3ccccc3[nH]c2c2c1[nH]c1ccccc12
- IC50 (MDA-MB-231 [1]): 2.93 µM
- IC50 (MCF7): 6.3 µM

SMILES: COC(=O)c1cc2c3ccccc3[nH]c2c2c1[nH]c1ccc(Br)cc12
- IC50 (MDA-MB-231 [1]): > 40 µM
- IC50 (MCF7): > 40 µM

SMILES: CN(C)CCNC(=O)c1cc2c3ccccc3[nH]c2c2c1[nH]c1ccc(Br)cc12
- IC50 (HEL): 3.63 µM
- IC50 (K562): 1.56 µM
- IC50 (MDA-MB-231 [1]): 1.06 µM
- IC50 (MCF7): 2 µM
- IC50 (4T1): 2.77 µM
- IC50 [2]: 2.43 µM
- IC50 [3]: 3.81 µM
- growth inhibition (GI) (MDA-MB-231 [4]): Active
- Activity (MDA-MB-231 [5]): Active
- Activity (MDA-MB-231 [6]): 47.46%
- Activity (MDA-MB-231 [7]): 29.31%
- Activity (MDA-MB-231 [8]): 22.91%
- Activity (MDA-MB-231 [9]): 48.65%
- Activity (MDA-MB-231 [10]): 21.38%
- Activity (MDA-MB-231 [11]): 29.98%
- Activity (MDA-MB-231 [12]): 82.2%
- Activity (MDA-MB-231 [13]): 10.8%
- Activity (MDA-MB-231 [14]): 5%
- Activity (MDA-MB-231 [15]): 2%
- Activity (MDA-MB-231 [16]): 70.8%
- Activity (MDA-MB-231 [17]): 14.2%
- Activity (MDA-MB-231 [18]): 5.5%
- Activity (MDA-MB-231 [19]): 9.6%
- inhibition (MDA-MB-231 [20]): Active
- inhibition (MDA-MB-231 [21]): Active
- inhibition [22]: Active
- Activity (MDA-MB-231 [23]): inactive
- Activity (MDA-MB-231 [24]): inactive
- Activity (MDA-MB-231 [25]): inactive

SMILES: CN1CCC(NC(=O)c2cc3c4ccccc4[nH]c3c3c2[nH]c2ccccc23)CC1
- IC50 (MDA-MB-231 [1]): 1.62 µM
- IC50 (MCF7): 3.89 µM

SMILES: O=C(NCCN1CCCCC1)c1cc2c3ccccc3[nH]c2c2c1[nH]c1ccccc12
- IC50 (MDA-MB-231 [1]): 1.72 µM
- IC50 (MCF7): 3.27 µM

SMILES: COC(=O)c1cc2c3ccccc3[nH]c2c2c1[nH]c1cc(Cl)ccc12
- IC50 (MDA-MB-231 [1]): > 40 µM
- IC50 (MCF7): > 40 µM
